Structures can show the parent of a compound that is named as a salt.
Assays:
Alkaline phosphatase [1] = experiment: Peak light intensity of dephosphorylated dioxetanes; type: biochemical; details: for PEAK INTENSITY: 0.004 mM dioxetane, 30° C., 0.1M diethanolamine, 1 mM MgCl2, pH 10, alkaline phosphatase 1.05×10^-9 M
Description: Determination of the Peak Light Intensity of Dephosphorylated Dioxetanes
A 0.5 mL aliquot of dioxetane (0.004 mM) was equilibrated to 30° C. in 0.1M diethanolamine, 1 mM MgCl2, pH 10. Alkaline phosphatase (final concentration of 1.05×10^-9 M) was added to the tube and the chemiluminescent signal was measured in a Turner TD-20E luminometer for 10 to 20 minutes.

Alkaline phosphatase [2] = experiment: Chemiluminescence half-life of dephosphorylated dioxetane; type: biochemical; details: for T1/2 (chemiluminescence half-life): 0.004 mM dioxetane, 30° C., 0.1M diethanolamine, 1 mM MgCl2, pH 10, alkaline phosphatase 1.05×10^-9 M, no enhancer; for t1/2 (chemiluminescence half-life): in a buffer solution; for T1/2 (chemiluminescence half-life), with Sapphire II enhancer: Sapphire II enhancer: 0.1M diethanolamine, 1 mM MgCl2, 10% polyvinylbenzyltributyl ammonium chloride at 1 mg/mL
Description: Determination of the Chemiluminescence Half-Life of Dephosphorylated Dioxetane.
A 1 mL aliquot of each dioxetane (0.004 mM) was equilibrated to 30° C. in 0.1M diethanolamine, 1 mM MgCl2, pH 10. Alkaline phosphatase (at final concentration of 1.05×10^-9 M) was added to the test tube and the chemiluminescent signal kinetics was measured in a Turner TD-20E luminometer for 10 to 20 minutes. The half-life was calculated from the plot of log RLU versus time. For TFE and TFE-ADP-Star, the chemiluminescent half-life was also determined in the presence of Sapphire II enhancer (in 0.1M diethanolamine, 1 mM MgCl2, 10% polyvinylbenzyltributyl ammonium chloride at 1 mg/mL).

[3] = test system: biotinylated pBR322(35 mer); experiment: Detection of biotinylated pBR322 (35 mer) on nylon membrane; details: for DNA CONC. (detection sensitivity): 5 minute exposure, 0.25 mM dioxetane, nylon membrane, pH 9.5 for CSPD and TFE, pH 9.0 for CDP-Star and TFE-ADP-Star
Source text: Detection of Biotinylated pBR322(35 mer) on Nylon Membrane
Serial dilutions of biotinylated pBR322 (35 mer) were spotted onto strips of Tropilon-Plus nylon membrane. Spots correspond to 210 pg, 70 pg, 23.3 pg, 7.7 pg, 2.6 pg, 0.86 pg, 0.29 pg, 0.10 pg, 32.0 fg, 10.7 fg, 3.6 fg and 1.2 fg of biotinylated pBR322(35 mer). After spotting, the DNA was cross-linked to the membrane by UV fixation, the membranes were blocked with 0.2% I-Block, 5% sodium dodecyl sulfate (SDS) in phosphate buffered saline(PBS) (Blocking Buffer I), incubated with a 1-5000 dilution of Avidx-AP in Blocking Buffer I for 30 minutes, washed twice with 5% SDS in PBS for 5 minutes, rinsed twice with Assay Buffer, incubated for 5 minutes in 0.25 mM dioxetane phosphate in Assay Buffer and exposed to X-ray film for 5 minutes. The membrane strips incubated with CSPD, and TFE were rinsed with 0.1M diethanolamine, 1 mM MgCl2, pH 9.5 and those incubated with CDP-Star, and TFE-ADP-Star were rinsed with the same buffer at pH 9.0. The Assay Buffer for CSPD and TFE was 0.1M diethanolamine, 1 mM MgCl2, pH 9.5 and for CD-Star, and TFE-ADP-Star was the same buffer at pH 9.0.

Alkaline phosphatase [4] = experiment: Enzymatic triggering of the prepared dioxetane with alkaline phosphatase to produce light; type: biochemical
Description: 480 milligrams of chromatographed disodium 2-chloro-5-(2,2,2-trifluoroethoxy tricyclo[3.3.1.1^3,7 ]dec-2-ylidenemethyl)phenyl phosphate was placed in a tube and wet down with anhydrous methanol, 4 mL. Chloroform, 40 mL, was added to obtain a solution. A solution of tetraphenylporphine (TPP), 6 milligrams in 3 mL chloroform, was then added to yield a pink-purple reaction mixture. The solution was cooled in an ice bath while sparging with oxygen through a Pasteur pipette for 5 minutes. The gas flow was continued while the solution was irradiated with a 400 watt sodium vapor lamp which had been filtered with a 3.0 mil thickness of DuPont Kapton film. After 40 minutes, a small sample was blown down and dissolved in water which contained 0.1% NaHCO3. Analytical HPLC, under conditions described above for the starting material, indicated a new product which eluted at 12.1 minutes. The starting material, eluting at 12.5 minutes, was present in just a trace amount. The reaction was stripped of solvents and pumped to yield a dark red foam. This was dissolved in 80 mL water which contained 5 drops of 0.5M NaOH. The solution was filtered to remove insolubles, and was preparatively chromatographed on a one inch PLRP-S column (Polymer Laboratories) using an acetonitrile/water gradient. The product peak was shaved on the front and in the back, collecting only the middle cut. […]

[5] = nylon membrane blotting, TABLE III

COC1(c2ccc(Cl)c(OP(=O)(O)O)c2)OOC12C1CC3CC(C1)CC2C3 (stereo not shown) [ADP-Star]
PEAK INTENSITY (Alkaline phosphatase [1]): 682 RLU
T1/2 (chemiluminescence half-life) (Alkaline phosphatase [2]): 2.7 min

COC1(c2cccc(OP(=O)(O)O)c2)OOC12C1CC3CC(C1)CC2C3 (stereo not shown) [AMPPD, 3-(2'-spiroadamantane)-4-methoxy-4-(3"-phosphoryloxy)-phenyl-1,2-dioxetanedisodium salt]
t1/2 (chemiluminescence half-life) (Alkaline phosphatase [2]): 2.1 min

COC1(c2ccc(Cl)c(OP(=O)(O)O)c2)OOC12C1CC3CC2CC(Cl)(C3)C1 (stereo not shown) [CDP-Star]
PEAK INTENSITY (Alkaline phosphatase [1]): 863 RLU
T1/2 (chemiluminescence half-life) (Alkaline phosphatase [2]): 1.2 min
DNA CONC. (detection sensitivity) [3]: 0.86 PICOGRAMS

COC1(c2cccc(OP(=O)(O)O)c2)OOC12C1CC3CC2CC(Cl)(C3)C1 (stereo not shown) [CSPD]
PEAK INTENSITY (Alkaline phosphatase [1]): 200 RLU
T1/2 (chemiluminescence half-life) (Alkaline phosphatase [2]): 0.6 min
half-life compared with TFE (Alkaline phosphatase [2]; by itself in a buffer): shorter than TFE
DNA CONC. (detection sensitivity) [3]: 23.3 PICOGRAMS

O=P(O)(O)Oc1cc(C2(OCC(F)(F)F)OOC23C2CC4CC(C2)CC3C4)ccc1Cl (stereo not shown) [TFE-ADP-Star, Disodium 2-chloro-5-(4-(2,2,2-trifluoroethoxy)spiro{1,2-dioxetane-3,2'-tricyclo[3.3.1.1^3,7]decan}-4-yl-phenyl phosphate]
PEAK INTENSITY (Alkaline phosphatase [1]): 390 RLU
chemiluminescent signal intensity / relative emission efficiency (Alkaline phosphatase [1]; comment on TABLE II): generates a higher intensity signal
light production on enzymatic triggering with alkaline phosphatase (Alkaline phosphatase [4]): produce light
T1/2 (chemiluminescence half-life) (Alkaline phosphatase [2]): 2.0 min
T1/2 (chemiluminescence half-life), with Sapphire II enhancer (Alkaline phosphatase [2]): 5.0 min
DNA CONC. (detection sensitivity) [3]: 0.0107 PICOGRAMS
amount of DNA detected relative to TFE [3, 5]: close to one thousand times less DNA than TFE
sensitivity compared with CDP-Star [3, 5]: more sensitive than CDP-Star

O=P([O-])([O-])Oc1cccc(C2(OCC(F)(F)F)OOC23C2CC4CC3CC(Cl)(C4)C2)c1.[Na+].[Na+] (stereo not shown) [TFE-CDP-Star, Disodium 3-(4-(2,2,2-trifluoroethoxy)spiro{1,2-dioxetane-3,2'-(5'-chloro)tricyclo [3.3.1,1^3,7]decan}-4-yl)phenyl phosphate]
duration of burst of light on addition of excess alkaline phosphatase (Alkaline phosphatase [4]; HPLC peak of basified reaction sample, pH 10 aqueous diethanolamine buffer, excess alkaline phosphatase): 3 min

O=P(O)(O)Oc1cccc(C2(OCC(F)(F)F)OOC23C2CC4CC(C2)CC3C4)c1 (stereo not shown) [TFE]
PEAK INTENSITY (Alkaline phosphatase [1]): 282 RLU
T1/2 (chemiluminescence half-life) (Alkaline phosphatase [2]): 0.9 min
T1/2 (chemiluminescence half-life), with Sapphire II enhancer (Alkaline phosphatase [2]): 15.5 min
t1/2 (chemiluminescence half-life) (Alkaline phosphatase [2]): 0.9 min
t1/2 in the presence of enhancers (Alkaline phosphatase [2]; in the presence of enhancers): 15 min
DNA CONC. (detection sensitivity) [3]: 7.7 PICOGRAMS

— US5869699A, “1,2 chemiluminescent dioxetanes of improved performance” (Tropix, Inc., priority 1997, dated 1999)
